Measurements: US9936705B2, “Biocide formulation for protecting the skin, comprising pentahydrate copper salts and heptahydrate zinc salts” (priority 2014, dated 2018)
Where “and” joins values, the source holds several entries; their conditions need not be identical. Identical values can stand only once.

Experiments:
Test in all cases: Sensitivity to antimicrobial agents, Kirby-Bauer disk methodology
Format in all cases: cell-based
S. aureus = conditions: Southern Region, clinical bovine mastitis isolates
Description: (§1) The following antimicrobial agents were assessed (Oxoid Ltd. Hampshire, England): • Amoxicillin/clavulanic acid (AMC), • Trimethropin/sulfamethoxazole (SXT), • Cefotaxime (CTX), • Gentamicin (GN) and • Neomycin (NE).
(§2) The bacterial specimens were analyzed according to the Kirby-Bauer disk methodology following the recommendations provided by the guidelines of the Clinical Laboratory Standards Institute (CLSI 2012b) and the BSAC standard (Andrews and Trial 2008).
(§3) The microorganisms were incubated in Mueller Hinton agar plates at 35° C. for 18-24 hours in aerobics atmosphere. As quality control E. coli (ATCC 25922) and Staphylococcus aureus (25923) were used. The CLSI cut-off points were used to interpret the susceptibility of all microbial agents. For the determination of the cut-off point value for neomycin (NE), the BSAC standard was applied.

S. uberis = conditions: Southern Region, clinical bovine mastitis isolates
Description: as §1, §2, §3

E. coli = conditions: Central Region, clinical bovine mastitis isolates
Description: as §1, §2, §3

CNS = conditions: clinical bovine mastitis isolates
Description: as §1, §2, §3

| Compound | Resistant (%) (S. aureus) | Resistant N° (S. aureus) | Resistant (%) (S. uberis) | Resistant N° (S. uberis) | Resistant (%) (E. coli) | Resistant N° (E. coli) | Resistant (%) (CNS; Central Region) | Resistant N° (CNS; Central Region) | Resistant (%) (CNS; Southern Region) | Resistant N° (CNS; Southern Region) | Resistant (%) (S. uberis; listed as CTK) |
| --- | --- | --- | --- | --- | --- | --- | --- | --- | --- | --- | --- |
| Trimethropin/sulfamethoxazole [SXT] | 3.6% | 1 | 0.0% | 0 | 15.4% | 2 | 0.0% | 0 | 0.0% | 0 |  |
| NC[C@@H]1O[C@H](O[C@H]2[C@@H](O)[C@H](O[C@@H]3[C@@H](O)[C@H](N)C[C@H](N)[C@H]3O[C@H]3O[C@H](CN)[C@@H](O)[C@H](O)[C@H]3N)O[C@@H]2CO)[C@H](N)[C@@H](O)[C@@H]1O [Ne, Neomycin] | 21.4% | 6 | 52% and 52.4% | 11 | 54% and 53.8% | 7 | 15.4% | 2 | 5.9% | 1 |  |
| Amoxicillin/clavulanic acid [AMC] | 7.1% | 2 | 0.0% | 0 | 23.0% | 3 | 0.0% | 0 | 0.0% | 0 |  |
| CO/N=C(\C(=O)N[C@@H]1C(=O)N2C(C(=O)O)=C(COC(C)=O)CS[C@H]12)c1csc(N)n1 [CTX, Cefotaxime] | 3.6% | 1 | 23.8% | 5 | 15.4% | 2 | 0.0% | 0 | 5.9% | 1 | 24% |
| Gentamicin [GN] | 0.0% | 0 | 43% and 42.9% | 9 | 15.4% | 2 | 0.0% | 0 | 0.0% | 0 |  |
